Experimental data published in patent publication US7189851B2, “Condensed heterocyclic compounds as calcitonin agonists” (SmithKline Beecham Corporation, priority 2002, dated 2007).

Tests used:
[1] = tested on: Thyroid-parathyroidectomized (TPTX) rats; assay: Rat TPTX assay in vivo (PTH-induced elevation of serum calcium); design: key to TPTX rat in vivo: Active: TPTX (Thyroid- parathyroidectomized) rat: Significant inhibition of bone resorption reflected in serum calcium levels relative to PTH + Vehicle controls; conditions: for TPTX rat in vivo: serum calcium, PTH-infused TPTX rats, vs PTH + Vehicle
Excerpt: Thyroid-parathyroidectomized (TPTX) rats were used to determine the effects of compounds on PTH-induced elevation of serum calcium in vivo. The thyroid and parathyroid glands of male CD rats were removed under anesthesia and subcutaneous pumps containing human parathyroid hormone (hPTH 1–34) were implanted two to five days after TPTX. […] PTH was delivered at a rate of 30 micrograms/kg/hour. PTH causes significant elevations of serum calcium in TPTX rats given no other treatments. Rats were treated with vehicle, test compounds at various doses or calcitonin 16 units/kg SC. […] Serurn calcium was measured at baseline and every two hours up to six hours. Averaged group responses at each time point were compared using Analysis of Variance (ANOVA).

[2] = tested on: neonatal rat calvaria; assay: Rat calvaria assay in vitro (bone resorption); format: cell-based; design: key: Active: Rat calvaria: Concentration-dependent inhibition of bone resorption with efficacy equivalent to calcitonin 1 ng/ml; conditions: PTH 10 ng/ml stimulated bone resorption; calcium and deoxypyridinoline in supernatant
Method: Bone resorption of neonatal rat cavarial chips was measured using methods adapted from published protocols [Ulf H, Lemer Modifications of the Mouse Calvarial Technique Improve the Responsiveness to Stimulators of Bone Resorption. Journal of Bone and Mineral Research Vol 2, No. 5, 1987]. Resorption was measured by quantification of calcium in the supernatant by a calorimetric assay and of deoxypyridinoline in the supernatant by ELISA. Deoxypyridinoline is released as a by product of collagen degradation by the osteoclast
Calvaria were surgically removed from 2–3 day old Wistar rats and placed in a sterile tube containing BGJb media (Fitton-Jackson Modification)—GIBCO BRL with penicillin (10 U/ml)/streptomycin (10 μg/ml). Calvaria were washed twice with fresh media, trimmed of excess tissue, and placed in fresh media. Calvaria were uniformly sectioned and placed in the wells of a tissue culture plate in 1 ml of BGJb/P/S with 1 mg/ml BSA. Calvaria were incubated for 24 hours at 37° C., 5% CO2 before treatments. Media was aspirated and replaced with 1 ml of fresh media containing PTH 10 ng/ml . Unstimulated wells contained media alone. Test compounds or calcitonin (1 ng/ml) were added. Compounds or calcitonin were added again on days 2 and 3, with no medium or PTH additions. Upon completion of the assay, the media was collected and stored at −20° C. until analysis was performed. Calvaria were air-dried for several days, and dry weight was quantified.
Deoxypyridinoline ELISA: Supernatants were evaluated for deoxypyridinoline crosslinks according to kit manufacturer instructions. SoftMax software was used to evaluate ELISA data from a 96-well format to generate a standard curve. Sample values were extrapolated from this standard curve. Extrapolated sample values were imported into a Microsoft Excel to normalize sample values to dried calvarial weight. Data was expressed as nanomolar DPD/mg calvaria.
Calcium analysis: Calcium determinations were made using Arsenazo III reagent from Sigma Diagnostics No. 588. Procedure followed as described by manufacturer in kit instructions. Data was imported from plate reader into Microsoft® Excel® and calcium concentrations were calculated as follows: [Asample/Astandard]×Concentration of standard=mg/dL Calcium
Sample values were normalized to dried calvarial weight and expressed as mg/dL calcium per mg calvaria.

[3] = target: T1, human calcitonin-2 receptor (hCT2R) (Homo sapiens, UniProt P30988); assay: HCT2R CRE-luc reporter assay; format: cell-based; conditions: agonist activity; CHO-6CRE-luciferase cells co-transfected with hCT2R
T1 construct: expressed in transfected cells; host or cells: Chinese hamster ovary (CHO) cells co-transfected with a 6CRE-luciferase reporter; receptor cDNA cloned from the MCF7 cell line
T1 sequence (P30988 25-474): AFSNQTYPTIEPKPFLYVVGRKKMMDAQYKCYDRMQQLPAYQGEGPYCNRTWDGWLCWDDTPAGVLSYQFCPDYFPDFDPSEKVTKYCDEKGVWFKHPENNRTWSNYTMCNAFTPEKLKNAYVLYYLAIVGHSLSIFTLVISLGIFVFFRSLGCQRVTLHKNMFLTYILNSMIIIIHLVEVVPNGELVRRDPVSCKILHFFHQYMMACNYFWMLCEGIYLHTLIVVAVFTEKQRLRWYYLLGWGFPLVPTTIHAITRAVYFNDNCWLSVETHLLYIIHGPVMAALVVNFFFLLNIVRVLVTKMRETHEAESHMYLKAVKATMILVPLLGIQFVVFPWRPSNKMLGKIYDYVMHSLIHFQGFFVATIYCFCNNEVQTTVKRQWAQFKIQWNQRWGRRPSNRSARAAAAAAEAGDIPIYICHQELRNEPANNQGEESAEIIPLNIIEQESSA

[4] = tested on: Human osteoclasts; assay: Human osteoclast assay in vitro (bone resorption); format: cell-based; design: key: Active: Human osteoclast: Significant inhibition of bone resorption in the absence of toxicity, relative to vehicle-treated controls; conditions: inhibition of bone resorption on cortical bone slices, 3 to 7 days
Method: Human osteoclasts were differentiated from peripheral blood cells using methods adapted from published protocols [Journal of Experimental Medicine 188(5):997–1001, 1998. TRANCE is necessary and sufficient for osteoblast-mediated activation of bone resorption in osteoclasts. K Fuller, B Wong, S Fox, Y Choi, and T J Chambers]. Human mononuclear cells were incubated on bone slices in M_CSF (30 ng/ml) and RANKL (TRANCE, 30 ng/ml) for 10 days. Differentiated osteoclasts were identified using an osteoclast-specific monoclonal antibody. Osteoclasts with test compounds or vehicle were incubated on cortical bone slices for an additional 3 to 7 days to measure bone resorption. In addition to bone resorption, toxicity and osteoclastogenesis were observed after compound treatments. A positive response was defined as significant inhibition of bone resorption without toxicity.

| Molecule | EC50 [3] [nM] | Rat calvaria in vitro [2] | other results |
| --- | --- | --- | --- |
| CCOC(=O)c1c(CCc2ccc(C(F)(F)F)cc2)nc2c(c1-c1ccc(C(=O)N[C@@H](C)c3ccncc3)cc1)C(=O)N1CCC[C@@H]21 [Example 5, Ethyl (9aS)-5-oxo-4-[4-({[(1S)-1-(4-pyridinyl)ethyl]amino}carbonyl)phenyl]-2-{2-[4-(trifluoromethyl)phenyl]ethyl}-7,8,9,9a-tetrahydro-5H-pyrido[2,3-α]pyrrolizine-3-carboxylate] | 100 to 1000 | Active | TPTX rat in vivo [1]: Active; melting point: 158 to 160 °C |
| CCOC(=O)c1c(CCc2ccc(OC)cc2)nc2c(c1-c1ccc(C(=O)NCc3ccccn3)cc1)C(=O)N1CCC[C@H]1C2 [Example 57, Ethyl (9aS)-2-[2-(4-methoxyphenyl)ethyl]-5-oxo-4-(4-{[(2-pyridinylmethyl)amino]carbonyl}phenyl)-5,7,8,9,9a,10-hexahydropyrrolo[1,2-g][1,6]naphthyridine-3-carboxylate] | ≥ 1000 | – | melting point: > 200 °C |
| calcitonin [reference compound] | – | – | suppression of PTH-induced hypercalcemia ([1]; 16 units/kg SC, TPTX rats): maximal suppression |
| CCOC(=O)c1c(CCc2ccc(C(F)(F)F)cc2)nc2c(c1-c1ccc(NC(=O)Nc3ccccc3)cc1)C(=O)N1CCC[C@@H]21 [Example 7, Ethyl (9aS)-4-{4-[(anilinocarbonyl)amino]phenyl}-5-oxo-2-{2-[4-(trifluoromethyl)phenyl]ethyl}-7,8,9,9a-tetrahydro-5H-pyrido[2,3-α]pyrrolizine-3-carboxylate] | 100 to 1000 | – | melting point: 137 to 139 °C |
| CCOC(=O)c1c(CCc2ccc(C(F)(F)F)cc2)nc2c(c1-c1ccc(S(=O)(=O)NCc3ccco3)cc1)C(=O)N1CCC[C@@H]21 [Example 2, Ethyl (9aS)-4-(4-{[(2-furylmethyl)amino]sulfonyl}phenyl)-5-oxo-2-{2-[4-(trifluoromethyl)phenyl]ethyl}-7,8,9,9a-tetrahydro-5H-pyrido[2,3-a]pyrrolizine-3-carboxylate] | 100 to 1000 | – | melting point: 181 to 182 °C |
| O=C(N[C@@H]1CCc2ccccc21)c1ccc2c(c1)[nH]c(=O)c1c(CCc3ccc(F)cc3)nc3c(c12)C(=O)N1CCC[C@@H]31 [Example 59, (8bS)-N-[(1R)-2,3-dihydro-1H-inden-1-yl]-7-[2-(4-fluorophenyl)ethyl]-6,13-dioxo-5,8b,9,10,11,13-hexahydro-6H-benzo[c]pyrrolizino[2,1-f][2,7]naphthyridine-3-carboxamide] | ≤ 10 | – | – |
| Cc1nc2c(c(-c3ccc(C(=O)NCc4ccco4)cc3)c1C(=O)CCc1ccc(F)cc1)C(=O)N1CCC[C@@H]21 [Example 30, 4-{(9aS)-3-[3-(4-fluorophenyl)propanoyl]-2-methyl-5-oxo-7,8,9,9a-tetrahydro-5H-pyrido[2,3-α]pyrrolizin-4-yl}-N-(2-furylmethyl)benzamide] | 100 to 1000 | – | – |
| CCOC(=O)c1c(Cc2ccc(F)cc2)nc2c(c1-c1ccc(C(=O)NN3CCc4ccccc43)cc1)C(=O)N1CCC[C@@H]21 [Example 55, Ethyl (9aS)-4-{4-[(2,3-dihydro-1H-indol-1-ylamino)carbonyl]phenyl}-2-(4-fluorobenzyl)-5-oxo-7,8,9,9a-tetrahydro-5H-pyrido[2,3-α]pyrrolizine-3-carboxylate] | 10 to 100 | – | – |
| O=C(N[C@@H]1CCc2ccccc21)c1ccc(-c2cc(Cc3ccc(F)cc3)nc3c2C(=O)N2CCC[C@@H]32)cc1 [Example 20, 4-[(9aS)-2-(4-fluorobenzyl)-5-oxo-7,8,9,9a-tetrahydro-5H-pyrido[2,3-a]pyrrolizin-4-yl]-N-[(1R)-2,3-dihdro-1H-inden-1-yl]benzamide] | 10 to 100 | – | – |
| CCOC(=O)c1c(CCc2ccc(OC)cc2)nc2c(c1-c1ccc(C(=O)NCc3ccco3)cc1)C(=O)N1CCC[C@H]21 [Example 1, Ethyl (9aR)-4-(4-{[(2-furylmethyl)amino]carbonyl}phenyl)-2-[2-(4-methoxyphenyl)ethyl]-5-oxo-7,8,9,9a-tetrahydro-5H-pyrido[2,3-α]pyrrolizine-3-carboxylate] | 10 to 100 | – | – |

More lines, main results first:

| EC50 [3] [nM] | Molecule | Rat calvaria in vitro [2] | other results |
| --- | --- | --- | --- |
| 10 to 100 | CCOC(=O)c1c(CCc2ccc(C(F)(F)F)cc2)nc2c(c1-c1ccc(C(=O)NCc3cccnc3)o1)C(=O)N1CCC[C@@H]21 [Example 12, Ethyl(9aS)-5-oxo-4-(5-{[(3-pyridinylmethyl)amino]carbonyl}-2-furyl)-2-{2-[4-(trifluoromethyl)phenyl]ethyl}-7,8,9,9a-tetrahydro-5H-pyrido[2,3-a]pyrrolyzine-3-carboxylate] | Active | Human osteoclast in vitro [4]: Active; TPTX rat in vivo [1]: Active |
| ≤ 10 | CCOC(=O)c1c(CCc2ccc(F)cc2)nc2c(c1-c1cc(C(=O)NCc3ccc(F)c(F)c3)cs1)C(=O)N1CCC[C@@H]21 [Example 16, Ethyl(9aS)-4-(4-{[(3,4-difluorobenzyl)amino]carbonyl}-2-thienyl)-2-[2-(4-fluorophenyl)ethyl]-5-oxo-7,8,9,9a-tetrahydro-5H-pyrido[2,3-a]pyrrolizine-3-carboxylate] | Active | TPTX rat in vivo [1]: Active |
| 10 to 100 | CCOC(=O)c1c(CCc2ccc(C(F)(F)F)cc2)nc2c(c1-c1ccc(C(=O)N[C@H](C)c3ccncc3)cc1)C(=O)N1CCC[C@@H]21 [Example 4, Ethyl (9aS)-5-oxo-4-[4-({[(1R)-1-(4-pyridinyl)ethyl]amino}carbonyl)phenyl]-2-{2-[4-(trifluoromethyl)phenyl]ethyl}-7,8,9,9a-tetrahydro-5H-pyrido[2,3-a]pyrrolizine-3-carboxylate] | Active | TPTX rat in vivo [1]: Active |
| ≤ 10 | CCOC(=O)c1c(CCc2ccc(C(F)(F)F)cc2)nc2c(c1-c1ccc(C(=O)NCc3ccco3)cc1)C(=O)N1CCC[C@@H]21 [Example 11, Ethyl(9aS)-4-(4-{[(2-furylmethyl)amino]carbonyl}phenyl)-5-oxo-2-{2-[4-(trifluoromethyl)phenyl]ethyl}-7,8,9,9a-tetrahydro-5H-pyrido[2,3-a]pyrrolizine-3-carboxylate] | Active | Human osteoclast in vitro [4]: Active |
| 100 to 1000 | CCOC(=O)c1c(CCc2ccc(F)cc2)nc2c(c1-c1cc(Br)cs1)C(=O)N1CCC[C@@H]21 [Example 56, Ethyl (9aS)-4-(4-bromo-2-thienyl)-2-[2-(4-fluorophenyl)ethyl]-5-oxo-7,8,9,9a-tetrahydro-5H-pyrido[2,3-α]pyrrolizine-3-carboxylate] | – | – |
